EC50 and IC50 data for eleven molecules are collected here from patent publication US11964973B2 (priority 2019, dated 2024).

pEC50, pIC50: −log10 of the molar value. Like-named read-outs stand apart in the source and are kept apart here.

Assay [1] relates to Human venous whole blood (IFN-γ). Briefly: Human whole blood IFN-γ assay. It counts as cell-based. On the procedure:
Assay 10: Human Whole Blood IFN-γ Assay
Human venous whole blood (22.5 μL per well), obtained from healthy donors, was pre-treated with compounds for one hour at 37° C. in a humidified 95% air/5% CO2 incubator. The blood was stimulated with 2.5 μL anti-human CD3 and anti-CD28 mAb at a final concentration of 1 μg/mL each for 24 hours at 37° C. IFN-γ in the supernatants was measured using AlphLISA kit (Cat #AL217).

The target of assay [2] is human DGKζ (Homo sapiens (Human), UniProt Q13574). As to the kind of experiment: biochemical. It counts as biochemical. As to conditions: liposome (LIPGLO) assay; read-out: DGKζ LIPGLO IC50.
Chain of human DGKζ (Q13574 whole entry, looked up): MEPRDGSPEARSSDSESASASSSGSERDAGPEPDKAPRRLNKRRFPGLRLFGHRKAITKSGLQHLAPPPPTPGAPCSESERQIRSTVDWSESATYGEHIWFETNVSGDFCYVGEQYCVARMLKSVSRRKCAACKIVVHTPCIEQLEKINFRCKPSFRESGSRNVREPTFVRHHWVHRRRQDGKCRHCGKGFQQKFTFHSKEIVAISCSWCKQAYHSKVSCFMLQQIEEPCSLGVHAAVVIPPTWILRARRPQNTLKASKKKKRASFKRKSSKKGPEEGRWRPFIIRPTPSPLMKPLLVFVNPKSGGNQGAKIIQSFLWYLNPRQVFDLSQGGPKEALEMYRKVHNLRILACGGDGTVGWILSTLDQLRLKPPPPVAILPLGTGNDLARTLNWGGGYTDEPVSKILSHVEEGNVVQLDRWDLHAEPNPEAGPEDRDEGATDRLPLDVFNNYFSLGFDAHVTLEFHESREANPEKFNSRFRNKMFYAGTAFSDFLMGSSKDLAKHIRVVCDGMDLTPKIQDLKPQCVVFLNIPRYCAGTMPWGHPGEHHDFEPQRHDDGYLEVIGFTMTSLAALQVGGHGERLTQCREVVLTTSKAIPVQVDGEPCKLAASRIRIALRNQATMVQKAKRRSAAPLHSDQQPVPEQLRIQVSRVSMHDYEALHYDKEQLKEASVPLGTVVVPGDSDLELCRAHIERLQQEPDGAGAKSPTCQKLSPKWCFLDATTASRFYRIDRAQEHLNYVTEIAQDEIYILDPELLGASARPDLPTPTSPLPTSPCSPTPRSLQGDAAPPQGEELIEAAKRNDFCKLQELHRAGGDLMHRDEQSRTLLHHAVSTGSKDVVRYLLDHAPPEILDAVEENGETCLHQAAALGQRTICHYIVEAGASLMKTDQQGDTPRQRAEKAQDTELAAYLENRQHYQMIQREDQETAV
Assay [3] deals with DGKα (Homo sapiens (Human), UniProt P23743). Briefly: biochemical. It counts as biochemical. As to conditions: liposome (LIPGLO) assay; read-out: DGKα LIPGLO IC50.
Chain of DGKα (P23743 whole entry, looked up): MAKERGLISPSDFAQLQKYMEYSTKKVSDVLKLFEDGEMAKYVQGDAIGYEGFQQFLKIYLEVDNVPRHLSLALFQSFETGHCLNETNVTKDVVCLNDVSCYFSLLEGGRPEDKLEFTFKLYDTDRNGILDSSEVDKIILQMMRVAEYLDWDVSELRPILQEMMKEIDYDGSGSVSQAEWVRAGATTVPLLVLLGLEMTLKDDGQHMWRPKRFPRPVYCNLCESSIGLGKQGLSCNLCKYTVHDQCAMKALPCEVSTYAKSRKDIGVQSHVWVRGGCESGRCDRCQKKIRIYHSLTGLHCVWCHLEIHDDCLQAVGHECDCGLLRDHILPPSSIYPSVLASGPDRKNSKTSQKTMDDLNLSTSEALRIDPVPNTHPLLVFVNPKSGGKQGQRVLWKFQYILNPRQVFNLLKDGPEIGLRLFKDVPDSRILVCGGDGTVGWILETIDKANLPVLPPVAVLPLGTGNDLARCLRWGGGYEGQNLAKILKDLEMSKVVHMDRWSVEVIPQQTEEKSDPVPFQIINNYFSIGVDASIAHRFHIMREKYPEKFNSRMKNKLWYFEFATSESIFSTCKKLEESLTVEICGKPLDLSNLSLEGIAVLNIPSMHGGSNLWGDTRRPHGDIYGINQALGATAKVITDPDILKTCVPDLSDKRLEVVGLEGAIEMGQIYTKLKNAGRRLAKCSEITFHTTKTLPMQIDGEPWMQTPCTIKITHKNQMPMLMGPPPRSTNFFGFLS
Setting [4] is: Homo sapiens, 24 h, human whole blood, anti-CD3 plus anti-CD28, 24 hours; read-out: INFg Whole Blood Normalized Agonist EC50.
The mark [5] stands for this setting: human whole blood, anti-CD3 plus anti-CD28, 24 hours; read-out: INFg Whole Blood Normalized Agonist EC50.

For orientation: pEC50 means the negative decadic logarithm of the EC50, by convention in mol/L. By pIC50 is commonly meant −log10 of the IC50, conventionally taken in molar units.

`Cn1c(=O)cc(N2CCC(Oc3nccc4cccnc34)CC2)c2nc(C#N)ccc21` [Example 74, 8-(4-((1,7-naphthyridin-8-yl)oxy)piperidin-1-yl)-5-methyl-6-oxo-5,6-dihydro-1,5-naphthyridine-2-carbonitrile]: the pEC50 in assay [1] (setting [4]) was 4.70. Further, the pIC50 in assay [2] was 5.48; in assay [3] it was 5.55.
For `CC[C@@H]1CN(c2cc(=O)n(C)c3ccc(C#N)nc23)CC[C@H]1Oc1cccc(C(F)(F)F)c1` (single isomer, unassigned) [Example 142], the pEC50 in assay [1] (setting [5]) was 5.52. For the same molecule, the pIC50 in assay [2] is 5.96; in assay [3], 5.33.
On to `Cc1cccc(O[C@@H]2CCN(c3cc(=O)n(C)c4ccc(C#N)nc34)C[C@H]2C)c1` (single isomer, unassigned) [Example 109], for which the pEC50 in assay [1] (setting [5]) is 5.38. Besides, the figures for the pIC50 in assay [2] and in assay [3] were 4.54 and 6.92, respectively.
Regarding `C[C@@H]1CN(c2cc(=O)n(C)c3ccc(C#N)nc23)CC[C@H]1Oc1ccc(C(F)(F)F)cc1F` [Example 112, 8-((3R,4R)-4-(2-fluoro-4-(trifluoromethyl)phenoxy)-3-methylpiperidin-1-yl)-5-methyl-6-oxo-5,6-dihydro-1,5-naphthyridine-2-carbonitrile], the pEC50 in assay [1] (setting [4]) was 5.39. The pIC50 in assay [2] was 5.12; in assay [3], 6.47.
Take `CC[C@@H]1CN(c2cc(=O)n(C)c3ccc(C#N)nc23)CC[C@H]1Oc1cccc(C(F)(F)F)c1` (single isomer, unassigned) [Example 141]: the pEC50 in assay [1] (setting [5]) is 6.30. Also, the pIC50 is 6.59 in assay [2] and 7.17 in assay [3].
Consider `CC(C)c1ccc(O[C@@H]2CCN(c3cc(=O)n(C)c4ccc(C#N)nc34)C[C@H]2C)cc1` (single isomer, unassigned) [Example 95], for which, in assay [1] (setting [5]), the pEC50 is 6.00. The values for the pIC50 in assay [2] and in assay [3] were 5.30 and 6.40, respectively.
On to `C[C@@H]1CN(c2cc(=O)n(C)c3ccc(C#N)nc23)CC[C@H]1Oc1ccc(F)cc1C(F)(F)F` (single isomer, unassigned) [Example 118], for which the pEC50 in assay [1] (setting [5]) is 5.33. Moreover, the pIC50 in assay [2] is 4.28; in assay [3], 6.60.
`C[C@@H]1CN(c2cc(=O)n(C)c3ccc(C#N)nc23)CC[C@H]1Oc1ccc(F)cc1C(F)(F)F` [Example 116, 8-((3R,4R)-4-(4-fluoro-2-(trifluoromethyl)phenoxy)-3-methylpiperidin-1-yl)-5-methyl-6-oxo-5,6-dihydro-1,5-naphthyridine-2-carbonitrile]: in assay [1] (setting [4]), the pEC50 was 5.33. In addition, the pIC50 in assay [2] was 4.89; in assay [3], 6.35.
For `Cn1c(=O)cc(N2CCC(Oc3ncnc4ccccc34)CC2)c2nc(C#N)ccc21` [Example 71, 5-methyl-6-oxo-8-(4-(quinazolin-4-yloxy)piperidin-1-yl)-5,6-dihydro-1,5-naphthyridine-2-carbonitrile], the pEC50 in assay [1] (setting [4]) was 4.70. The pIC50 was 5.52 in assay [2] and 5.64 in assay [3].
Regarding `Cc1cc(OC2CCN(c3cc(=O)n(C)c4ccc(C#N)nc34)CC2)ccc1C(C)C` [Example 60, 8-(4-(4-isopropyl-3-methylphenoxy)piperidin-1-yl)-5-methyl-6-oxo-5,6-dihydro-1,5-naphthyridine-2-carbonitrile], the pEC50 in assay [1] (setting [4]) is 5.10. For the same molecule, the results for the pIC50 in assay [2] and in assay [3] were 5.26 and 6.62, respectively.
With `CC[C@@H]1CN(c2cc(=O)n(C)c3ccc(C#N)nc23)CC[C@@H]1Oc1cccc(C(C)(C)C)c1` [Example 165, 8-((3R,4S)-4-(3-(tert-butyl)phenoxy)-3-ethylpiperidin-1-yl)-5-methyl-6-oxo-5,6-dihydro-1,5-naphthyridine-2-carbonitrile], in assay [1] (read-out: INFg Whole Blood Normalized Agonist EC50; human whole blood, anti-CD3 plus anti-CD28, 24 hours), the pEC50 was 6.08. The pIC50 was 5.92 in assay [2] and 7.02 in assay [3].
